Assay results published in ChEMBL document CHEMBL1201862, “PubChem BioAssay data set” (2004).
The source made the active and inactive calls.

Columns and labels:
[1] = target: T1, Protein skinhead-1 (Caenorhabditis elegans, UniProt P34707); format: functional
T1 sequence (P34707 whole entry): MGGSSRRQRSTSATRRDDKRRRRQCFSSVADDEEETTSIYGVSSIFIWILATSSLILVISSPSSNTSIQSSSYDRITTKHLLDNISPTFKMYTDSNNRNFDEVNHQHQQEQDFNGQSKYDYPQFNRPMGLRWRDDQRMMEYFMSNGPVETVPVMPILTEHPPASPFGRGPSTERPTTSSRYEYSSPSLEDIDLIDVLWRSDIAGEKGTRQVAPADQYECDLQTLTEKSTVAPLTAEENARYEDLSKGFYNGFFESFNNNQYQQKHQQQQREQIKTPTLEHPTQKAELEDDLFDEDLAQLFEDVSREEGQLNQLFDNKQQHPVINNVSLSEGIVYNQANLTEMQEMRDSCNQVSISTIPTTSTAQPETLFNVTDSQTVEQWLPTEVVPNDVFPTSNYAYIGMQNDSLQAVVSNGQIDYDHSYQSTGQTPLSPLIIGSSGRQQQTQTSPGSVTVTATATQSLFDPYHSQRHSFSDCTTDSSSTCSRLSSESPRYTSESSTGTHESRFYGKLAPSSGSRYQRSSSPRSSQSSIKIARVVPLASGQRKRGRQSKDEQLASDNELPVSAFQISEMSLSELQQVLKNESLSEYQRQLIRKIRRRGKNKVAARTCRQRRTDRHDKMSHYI

[2] = tested on: H4; experiment: Luminescence Cell-Based Dose Response HTS to Identify Activators of 5'UTR Stem-Loop Driven Prion Protein mRNA Translation in H4 Neuroglioblastoma Cells. [Related pubchem assays: 1829 (Project Summary), 1814 (Primary HTS)]; format: functional; settings: Homo sapiens
[3] = Luminescence Cell-Based Dose Confirmation HTS to Identify Activators of 5'UTR Stem-Loop Driven Alpha-Synuclein mRNA Translation in H4 Neuroglioblastoma Cells. [Related pubchem assays: 1829 (Project Summary), 1814 (Primary HTS)]; format: functional
[4] = Luminescence Cell-Based Dose Response HTS to Identify Activators of Luciferase Translation or Activity in H4 […] Cells. [Related pubchem assays: 1829 (Project Summary), 1814 (Primary HTS)]; format: functional
[5] = target: T2, Carboxy-terminal domain RNA polymerase II polypeptide A small phosphatase 1 (Homo sapiens, UniProt Q9GZU7); experiment: CTDSP1 inhibitors, concentration-response, biochemical, absorbance readout, ultra-high-throughput screen actives (AID 540297); format: functional
T2 sequence (Q9GZU7 whole entry): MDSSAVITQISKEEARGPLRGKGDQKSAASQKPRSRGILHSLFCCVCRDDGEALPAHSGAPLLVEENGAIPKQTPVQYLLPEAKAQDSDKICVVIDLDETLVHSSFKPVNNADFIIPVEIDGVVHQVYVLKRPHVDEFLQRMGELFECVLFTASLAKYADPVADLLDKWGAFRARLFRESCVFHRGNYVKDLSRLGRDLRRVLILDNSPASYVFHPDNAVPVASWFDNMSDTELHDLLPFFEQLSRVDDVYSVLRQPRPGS

[6] = target: Cytochrome P450 2C19 (Homo sapiens, UniProt P33261); experiment: Cytochrome panel assay with activity outcomes. Panel member name: p450-cyp2c19 Compounds with AC50 equal or less than 10 uM are considered active; format: functional; settings: read-out: AC50
[7] = fluconazole-exposed Candida albicans growth modulators – fluorescence, retest, confirmation (AID 2467); format: functional, cell-based
[8] = NIH-3T3 fibroblast cytotoxicity, dose response, cytotoxicity control, cell-based, fluorescence, Alamar Blue, secondary assay (AID 2327); format: functional;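 also: NIH-3T3 mouse fibroblasts cultured with fluconazole at 8 µg/mL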
[9] = cells; format: functional
[10] = viability of uninfected HEp-2 cells – cell-based, HTS, cytotoxicity control for RSV inhibitor project, dose response (AID 2410); format: functional; settings: human respiratory syncytial virus
[11] = microbe, parasite or virus in culture; format: functional; settings: Mycobacterium tuberculosis

Cytochrome P450 2C19, sequence (P33261 whole entry): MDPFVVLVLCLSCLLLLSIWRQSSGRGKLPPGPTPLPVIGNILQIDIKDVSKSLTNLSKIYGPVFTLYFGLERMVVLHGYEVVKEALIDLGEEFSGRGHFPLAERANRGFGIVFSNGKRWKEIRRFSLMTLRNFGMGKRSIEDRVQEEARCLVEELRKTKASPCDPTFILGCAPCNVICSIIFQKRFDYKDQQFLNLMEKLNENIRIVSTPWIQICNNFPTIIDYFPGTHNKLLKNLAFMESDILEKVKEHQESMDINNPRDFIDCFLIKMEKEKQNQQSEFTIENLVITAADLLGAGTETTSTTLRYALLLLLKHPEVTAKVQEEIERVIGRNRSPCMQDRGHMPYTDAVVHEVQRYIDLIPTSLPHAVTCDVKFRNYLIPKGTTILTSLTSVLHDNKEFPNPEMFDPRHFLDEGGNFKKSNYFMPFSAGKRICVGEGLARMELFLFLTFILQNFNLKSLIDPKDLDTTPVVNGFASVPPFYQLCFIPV

## CCN1C(=O)/C(=C/N(C)c2ccccc2)OC1=S
[1]
  IC50: 76.6 µM (inactive)

## COc1cc(/C=C2\C=CC(=O)O2)cc(OC)c1
[2]
  EC50: > 120 µM (not active)
[3]
  EC50: 13.3 µM (active)
[4]
  EC50: 12.2 µM (active)

## Cc1ccc2cc(C)c3nnc(SCC(=O)NCc4ccco4)n3c2c1
[5]
  IC50: 8.54 µM (active)
[6]
  AC50: 14.1 µM (inconclusive)

## CCOc1ccc(CNC(=O)Cn2nc(C)c3c(C)n(-c4ccc(C)cc4)nc3c2=O)cc1
[5]
  IC50: 6.46 µM (active)

## O=[N+]([O-])c1ccc(S(=O)(=O)Nc2nc3ccccc3nc2Nc2ccccc2)cc1
[7]
  EC50: 2.06 µM (active)
[8]
  EC50: > 150 µM (inactive)

## O=C(Cn1cnc2sc(-c3ccccc3)cc2c1=O)NCc1ccccc1
[5]
  IC50: 7.5 µM (active)

## C=C(C)CCOC(=O)C(CC(=O)O)NCc1ccco1 (stereo unspecified)
[5]
  IC50: 4.85 µM (active)

## O=C(NC(=S)N1CCN(C/C=C/c2ccccc2)CC1)c1ccco1
[9]
  IC50: 32.2 µM (active)

## O=C(C1=NNCC1c1ccccc1)C1OC1c1ccccc1 (stereo unspecified)
[2]
  EC50: > 120 µM (not active)
[3]
  EC50: 20.8 µM (active)
[4]
  EC50: 13.5 µM (active)

## Sc1c2c(nc3ncnn13)CCC2
[9]
  IC50: 16.6 µM (active)

## Cc1onc(-c2ccccc2)c1C(=O)NN=C(N)COc1ccc(Cl)cc1
[7]
  EC50: > 38 µM (not active)
[8]
  EC50: > 150 µM (inactive)

## O=C(O)c1cnc(-c2ccccc2)nc1Sc1ccccc1Cl
[7]
  EC50: 0.356 µM (active)
[8]
  EC50: > 160 µM (inactive)

## Cc1cccc(NC(S)=NNC(=O)c2csc(C(C)C)c2)c1
[3]
  EC50: 20.3 µM (active)
[8]
  EC50: > 150 µM (inactive)
[4]
  EC50: 36.9 µM (active)
[10]
  CC50: 27.1 µM (active)

## Cc1c(Cl)cccc1Nc1c([N+](=O)[O-])nn(-c2ccccc2)[n+]1[O-]
[1]
  IC50: > 100 µM (inactive)

## CCCOC(=O)c1ccc(-c2ccc(C=O)o2)cc1
[9]
  IC50: 9.73 µM (active)

## O=C(Nc1ccc(Br)c(Cl)c1)c1ccco1
[1]
  IC50: 14.2 µM (active)

## O=C1C(Cl)=C(N2CCOCC2)C(=O)N1CCc1ccccc1
[2]
  EC50: > 120 µM (not active)
[3]
  EC50: 0.656 µM (active)
[4]
  EC50: 1.56 µM (active)

## CCOC(=O)C1CCN(C(=O)CSCc2nc(-c3ccc(OCC)cc3)oc2C)CC1
[11]
  CC50: > 40 µM (active)
